Data reported in ChEMBL document CHEMBL1177792, “Pre-clinical characterization of aryloxypyridine amides as histamine H3 receptor antagonists: identification of candidates for clinical development” (Bioorg Med Chem Lett, 2010).
Activity calls are given as the source filed them. The calls are words filed in the database; no cut-off is given here.

Legend:
Histamine H3 receptor [1] = target: T1, Histamine H3 receptor (Homo sapiens, UniProt Q9Y5N1); experiment: Displacement of [125I]-iodoproxyfan from human recombinant histamine H3 receptor expressed in human SK-N-MC cells after 1 hr by scintillation counting; assay type: cell-based
Histamine H3 receptor [2] = target: T1, Histamine H3 receptor; experiment: Antagonist activity at human histamine H3 receptor expressed in human SK-N-MC cells assessed as inhibition of forskolin-induced cAMP accumulation after 6 hrs; assay type: functional, cell-based; conditions: read-out: pA2 (converted)
Histamine H3 receptor [3] = target: T2, Histamine H3 receptor (Rattus norvegicus, UniProt Q9QYN8); experiment: Antagonist activity at rat histamine H3 receptor expressed in human SK-N-MC cells assessed as inhibition of forskolin-induced cAMP accumulation after 6 hrs; assay type: functional, cell-based; conditions: read-out: pA2 (converted)
[4] = Metabolic stability in rat liver microsomes assessed as compound remaining after 30 mins; assay type: ADME, Microsome; conditions: read-out: Stability
[5] = Metabolic stability in human liver microsomes assessed as compound remaining after 30 mins; assay type: ADME, Microsome; conditions: read-out: Stability
Rattus norvegicus [6] = experiment: Ex vivo receptor occupancy of histamine H3 receptor in Wistar rat brain at 10 mg/kg, po after 1 hr by autoradiography; assay type: functional
[7] = Drug level in Wistar rat brain at 10 mg/kg, po after 1 hr; assay type: ADME, organism-based; set-up: dose 10 mg/kg, route oral; conditions: read-out: Drug uptake
[8] = Plasma concentration in Wistar rat at 10 mg/kg, po after 1 hr; assay type: ADME, organism-based; set-up: dose 10 mg/kg, route oral; conditions: read-out: Drug uptake
Histamine H3 receptor [9] = target: T2, Histamine H3 receptor; experiment: Binding affinity to histamine H3 receptor in rat brain; assay type: tissue-based
[10] = Clearance in Sprague-Dawley rat at 1 mg/kg, iv and 10 mg/kg, po; assay type: ADME, organism-based; conditions: in vivo
[11] = Volume of distribution at steady state in Sprague-Dawley rat at 1 mg/kg, iv and 10 mg/kg, po; assay type: ADME, organism-based; conditions: in vivo, read-out: Vdss
[12] = Half life in Sprague-Dawley rat at 1 mg/kg, iv and 10 mg/kg, po; assay type: ADME, organism-based; conditions: in vivo
[13] = Bioavailability in Sprague-Dawley rat at 1 mg/kg, iv and 10 mg/kg, po; assay type: ADME, organism-based; conditions: in vivo
[14] = Clearance in Beagle dog at 1 mg/kg, iv and 5 mg/kg, po; assay type: ADME, organism-based, Canis lupus familiaris; conditions: in vivo
[15] = Volume of distribution at steady state in Beagle dog at 1 mg/kg, iv and 5 mg/kg, po; assay type: ADME, organism-based, Canis lupus familiaris; conditions: in vivo, read-out: Vdss
[16] = Half life in Beagle dog at 1 mg/kg, iv and 5 mg/kg, po; assay type: ADME, organism-based, Canis lupus familiaris; conditions: in vivo
[17] = Bioavailability in Beagle dog at 1 mg/kg, iv and 5 mg/kg, po; assay type: ADME, organism-based, Canis lupus familiaris; conditions: in vivo
[18] = Clearance in BALB/c mouse at 1 mg/kg, iv and 10 mg/kg, po; assay type: ADME, organism-based; conditions: in vivo
[19] = Volume of distribution at steady state in BALB/c mouse at 1 mg/kg, iv and 10 mg/kg, po; assay type: ADME, organism-based; conditions: in vivo, read-out: Vdss
[20] = Half life in BALB/c mouse at 1 mg/kg, iv and 10 mg/kg, po; assay type: ADME, organism-based; conditions: in vivo
[21] = Bioavailability in BALB/c mouse at 1 mg/kg, iv and 10 mg/kg, po; assay type: ADME, organism-based; conditions: in vivo
[22] = target: T3, Voltage-gated inwardly rectifying potassium channel KCNH2 (Homo sapiens, UniProt Q12809); experiment: Displacement of radiolabeled astemizole from human ERG
hERG (KCNH2) = hERG (KCNH2) (Homo sapiens, UniProt Q12809); experiment: Displacement of radiolabeled astemizole from human ERG at 10 uM; conditions: probe radiolabeled astemizole
[23] = target: T3, Voltage-gated inwardly rectifying potassium channel KCNH2; experiment: Inhibition of human ERG by patch clamp technique
[24] = Permeability from apical to basolateral side of human Caco-2 cells; assay type: ADME, cell-based; conditions: read-out: permeability
[25] = Permeability from basolateral to apical side of human Caco-2 cells; assay type: ADME, cell-based; conditions: read-out: permeability
[26] = Solubility in simulated gastric fluid; assay type: physicochemical
[27] = Solubility in water; assay type: physicochemical
Cytochrome P450 3A4 = Cytochrome P450 3A4 (Homo sapiens, UniProt P08684); experiment: Inhibition of CYP3A4 at 10 uM; assay type: ADME
Cytochrome P450 2D6 = Cytochrome P450 2D6 (Homo sapiens, UniProt P10635); experiment: Inhibition of CYP2D6 at 10 uM; assay type: ADME
Cytochrome P450 2C9 = Cytochrome P450 2C9 (Homo sapiens, UniProt P11712); experiment: Inhibition of CYP2C9 at 10 uM; assay type: ADME
Rattus norvegicus [28] = experiment: Ex vivo receptor occupancy of histamine H3 receptor in Wistar rat brain at 1 mg/kg, po after 60 mins by [3H]R-alpha-methylhistamine bingind autoradiography; assay type: functional
[29] = Plasma concentration in Wistar rat at 1 mg/kg, po after 60 mins; assay type: ADME, organism-based; set-up: dose 1 mg/kg, route oral; conditions: read-out: Drug uptake
[30] = Fraction unbound in rat plasma; assay type: ADME, cell-free
Rattus norvegicus [31] = experiment: Increase of histamine release in rat frontal cortex at 3 to 30 mg/kg, po measured up to 180 mins; assay type: functional, organism-based
Rattus norvegicus [32] = experiment: Increase of wake duration in rat at 30 mg/kg, s.c.
Rattus norvegicus [33] = experiment: Ex vivo receptor occupancy of histamine H3 receptor in Wistar rat brain at 3 mg/kg, po after 30 mins by [3H]R-alpha-methylhistamine bingind autoradiography; assay type: functional
[34] = Plasma concentration in Wistar rat at 3 mg/kg, po after 30 mins; assay type: ADME, organism-based; set-up: dose 3 mg/kg, route oral; conditions: read-out: Drug uptake
Rattus norvegicus [35] = experiment: Increase of histamine release in rat frontal cortex at 0.3 to 3 mg/kg, sc measured up to 300 mins; assay type: functional, organism-based
Brain = experiment: Drug level in rat brain at 3 mg/kg, sc; assay type: ADME, organism-based; set-up: dose 3 mg/kg, route subcutaneous; conditions: in vivo, read-out: Drug uptake
Plasma = experiment: Plasma concentration in rat at 3 mg/kg, sc; assay type: ADME, organism-based; set-up: dose 3 mg/kg, route subcutaneous; conditions: in vivo, read-out: Drug uptake
Rattus norvegicus [36] = experiment: Increase of wake duration in rat at 10 mg/kg, sc; assay type: functional, organism-based; set-up: dose 10 mg/kg
Rattus norvegicus [37] = experiment: Increase of wake duration in rat at 10 mg/kg, s.c.

T3 sequence (Q12809 whole entry): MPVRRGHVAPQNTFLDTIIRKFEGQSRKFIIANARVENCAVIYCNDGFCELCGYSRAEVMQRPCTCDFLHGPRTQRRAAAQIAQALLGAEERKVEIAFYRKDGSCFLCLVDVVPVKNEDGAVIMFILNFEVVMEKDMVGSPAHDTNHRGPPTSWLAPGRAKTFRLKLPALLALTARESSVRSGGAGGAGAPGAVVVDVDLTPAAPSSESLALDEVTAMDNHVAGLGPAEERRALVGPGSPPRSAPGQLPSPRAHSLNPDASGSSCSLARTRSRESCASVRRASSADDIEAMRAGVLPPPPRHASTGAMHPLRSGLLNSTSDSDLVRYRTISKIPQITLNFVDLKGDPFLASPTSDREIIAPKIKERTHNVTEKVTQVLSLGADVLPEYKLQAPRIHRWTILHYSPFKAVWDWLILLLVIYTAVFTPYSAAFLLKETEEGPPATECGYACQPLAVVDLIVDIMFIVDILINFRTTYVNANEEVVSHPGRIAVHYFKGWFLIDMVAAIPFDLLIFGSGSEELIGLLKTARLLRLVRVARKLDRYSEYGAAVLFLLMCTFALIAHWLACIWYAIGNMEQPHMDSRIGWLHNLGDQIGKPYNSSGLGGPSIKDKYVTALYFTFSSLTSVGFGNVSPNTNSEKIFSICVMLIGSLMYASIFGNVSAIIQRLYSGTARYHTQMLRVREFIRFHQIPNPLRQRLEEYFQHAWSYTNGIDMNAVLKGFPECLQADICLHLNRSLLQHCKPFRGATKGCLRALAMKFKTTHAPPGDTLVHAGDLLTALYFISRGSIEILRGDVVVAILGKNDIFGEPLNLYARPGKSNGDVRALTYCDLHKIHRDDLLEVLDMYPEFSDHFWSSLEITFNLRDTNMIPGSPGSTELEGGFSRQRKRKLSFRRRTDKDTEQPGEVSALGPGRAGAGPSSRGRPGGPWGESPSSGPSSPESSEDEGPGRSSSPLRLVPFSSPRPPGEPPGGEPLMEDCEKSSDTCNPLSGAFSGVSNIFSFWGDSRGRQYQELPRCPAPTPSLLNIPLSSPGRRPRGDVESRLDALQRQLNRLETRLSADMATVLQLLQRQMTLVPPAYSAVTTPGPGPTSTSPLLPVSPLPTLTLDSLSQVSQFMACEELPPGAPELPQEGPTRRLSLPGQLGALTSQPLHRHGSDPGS
T1 sequence (Q9Y5N1 whole entry): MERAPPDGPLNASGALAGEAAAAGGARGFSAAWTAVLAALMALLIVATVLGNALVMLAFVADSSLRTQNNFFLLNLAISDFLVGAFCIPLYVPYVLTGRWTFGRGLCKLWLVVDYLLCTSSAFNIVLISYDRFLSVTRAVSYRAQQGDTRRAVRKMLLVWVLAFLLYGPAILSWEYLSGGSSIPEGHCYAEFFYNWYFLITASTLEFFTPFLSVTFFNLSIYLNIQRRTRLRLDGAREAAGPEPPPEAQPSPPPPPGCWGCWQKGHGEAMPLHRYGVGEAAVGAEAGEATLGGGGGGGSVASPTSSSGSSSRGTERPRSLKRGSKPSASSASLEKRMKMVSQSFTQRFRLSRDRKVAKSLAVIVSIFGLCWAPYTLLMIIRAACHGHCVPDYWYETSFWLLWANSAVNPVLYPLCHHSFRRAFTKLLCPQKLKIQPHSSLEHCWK
Chain of Cytochrome P450 3A4 (P08684 whole entry): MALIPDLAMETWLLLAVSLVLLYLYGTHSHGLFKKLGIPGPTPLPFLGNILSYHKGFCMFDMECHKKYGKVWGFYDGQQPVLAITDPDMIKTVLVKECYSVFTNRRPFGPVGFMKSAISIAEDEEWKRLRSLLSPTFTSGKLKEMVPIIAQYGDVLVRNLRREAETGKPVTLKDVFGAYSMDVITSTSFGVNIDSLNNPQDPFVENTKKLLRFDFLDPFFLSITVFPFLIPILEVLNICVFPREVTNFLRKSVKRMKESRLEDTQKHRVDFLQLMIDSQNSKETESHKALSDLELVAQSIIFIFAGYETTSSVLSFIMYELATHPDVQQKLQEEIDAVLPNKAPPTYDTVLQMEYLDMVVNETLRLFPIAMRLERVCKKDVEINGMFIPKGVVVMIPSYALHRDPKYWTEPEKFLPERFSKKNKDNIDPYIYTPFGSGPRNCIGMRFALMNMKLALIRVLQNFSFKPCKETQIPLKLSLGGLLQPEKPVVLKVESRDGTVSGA
Chain of Cytochrome P450 2D6 (P10635 whole entry): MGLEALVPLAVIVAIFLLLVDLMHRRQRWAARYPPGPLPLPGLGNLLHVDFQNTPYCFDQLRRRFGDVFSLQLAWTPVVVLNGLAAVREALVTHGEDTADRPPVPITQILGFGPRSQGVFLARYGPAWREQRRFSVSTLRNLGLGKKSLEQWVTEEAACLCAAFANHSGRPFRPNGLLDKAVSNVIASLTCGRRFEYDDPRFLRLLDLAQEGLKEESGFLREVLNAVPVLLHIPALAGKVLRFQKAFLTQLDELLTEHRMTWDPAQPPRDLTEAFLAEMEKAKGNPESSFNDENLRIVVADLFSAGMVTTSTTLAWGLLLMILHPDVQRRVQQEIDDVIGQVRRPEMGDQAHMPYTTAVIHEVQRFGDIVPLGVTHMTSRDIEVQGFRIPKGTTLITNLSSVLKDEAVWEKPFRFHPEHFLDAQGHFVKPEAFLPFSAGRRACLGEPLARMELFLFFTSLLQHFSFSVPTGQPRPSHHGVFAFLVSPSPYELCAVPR
Chain of Cytochrome P450 2C9 (P11712 whole entry): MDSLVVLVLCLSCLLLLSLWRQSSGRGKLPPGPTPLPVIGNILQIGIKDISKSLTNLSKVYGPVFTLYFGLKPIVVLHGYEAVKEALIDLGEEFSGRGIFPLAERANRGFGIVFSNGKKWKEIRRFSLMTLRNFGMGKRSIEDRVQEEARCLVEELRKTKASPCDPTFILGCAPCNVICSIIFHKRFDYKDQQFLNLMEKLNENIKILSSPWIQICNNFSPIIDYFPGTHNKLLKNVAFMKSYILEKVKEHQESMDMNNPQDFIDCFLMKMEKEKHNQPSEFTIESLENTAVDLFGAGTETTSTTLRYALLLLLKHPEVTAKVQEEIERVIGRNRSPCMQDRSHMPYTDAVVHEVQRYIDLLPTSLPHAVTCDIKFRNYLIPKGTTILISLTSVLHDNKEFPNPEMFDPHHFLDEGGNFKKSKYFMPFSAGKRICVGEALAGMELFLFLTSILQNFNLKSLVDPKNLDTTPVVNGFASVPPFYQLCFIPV
Chain of hERG (KCNH2) (Q12809 whole entry): as the sequence (Q12809 whole entry) above
T2 sequence (Q9QYN8 whole entry): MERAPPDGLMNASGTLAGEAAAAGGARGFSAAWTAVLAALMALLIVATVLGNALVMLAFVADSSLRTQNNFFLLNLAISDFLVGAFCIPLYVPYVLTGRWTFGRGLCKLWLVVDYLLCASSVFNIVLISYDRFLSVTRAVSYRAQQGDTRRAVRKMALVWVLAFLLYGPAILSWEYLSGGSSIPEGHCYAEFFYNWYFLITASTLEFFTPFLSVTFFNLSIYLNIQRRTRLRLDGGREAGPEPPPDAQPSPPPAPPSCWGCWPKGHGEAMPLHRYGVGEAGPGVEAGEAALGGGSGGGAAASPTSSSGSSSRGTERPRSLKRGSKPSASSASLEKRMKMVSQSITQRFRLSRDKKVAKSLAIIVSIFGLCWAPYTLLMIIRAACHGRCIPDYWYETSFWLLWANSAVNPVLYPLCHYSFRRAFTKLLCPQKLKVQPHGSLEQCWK

| SMILES | remaining at 0.5 h [4] [%] | remaining at 0.5 h [5] [%] | Activity (Rattus norvegicus [6]) [%] | concentration at 1 h [7] [nM] | concentration at 1 h [8] [nM] | clearance [10] [mL/min/kg] | Vd [11] [L/kg] | half-life [12] [h] | bioavailability [13] [%] | clearance [14] [mL/min/kg] | Vd [15] [L/kg] | half-life [16] [h] | bioavailability [17] [%] | clearance [18] [mL/min/kg] | Vd [19] [L/kg] | half-life [20] [h] | bioavailability [21] [%] | IC50 [22] [nM] | inhibition at 10 µM (hERG (KCNH2)) [%] | IC50 [23] [nM] | further results |
| --- | --- | --- | --- | --- | --- | --- | --- | --- | --- | --- | --- | --- | --- | --- | --- | --- | --- | --- | --- | --- | --- |
| N#Cc1cccc(Oc2ccc(C(=O)N3CCCN(C4CCC4)CC3)cn2)c1 | 87 | 99 | 87 | 960 | 6020 | 41 | 1.4 | 0.7 | 89 | 21 | 1.6 | 0.9 | 29 | 97 | 4.4 | 0.8 | 21 | > 10000 | 23 | > 10000 | Ki (Histamine H3 receptor [1]): 1.8 nM; Kb (Histamine H3 receptor [2]): 0.407 nM; Kb (Histamine H3 receptor [3]): 9.55 nM; Ki (Histamine H3 receptor [9]): 11 nM; Papp A→B [24]: 77 ×10⁻⁶ cm/s; Papp B→A [25]: 25 ×10⁻⁶ cm/s; solubility [26]: > 1000 µg/mL; solubility [27]: > 100000 µg/mL; Activity (Cytochrome P450 3A4): Not Active; Activity (Cytochrome P450 2D6): Not Active; Activity (Cytochrome P450 2C9): Not Active; Activity (Rattus norvegicus [28]): 90%; concentration at 1 h [29]: 160 ng/mL; fraction unbound [30]: 0.79; Activity (Rattus norvegicus [31]): Active; Activity (Rattus norvegicus [32]): Active |
| O=C(c1ccc(Oc2ccc(F)cc2)nc1)N1CCCN(C2CCC2)CC1 [JNJ-39220675] | 63 | 87 | 94 | 2650 | 1480 | 49 | 3.5 | 1.2 | 50 | 35 | 7.2 | 2.6 | 28 | 94 | 8.7 | 1.1 | 28 | > 10000 | 0 | 3500 | Papp A→B [24]: 78 ×10⁻⁶ cm/s; Papp B→A [25]: 36 ×10⁻⁶ cm/s; solubility [26]: > 5000 µg/mL; solubility [27]: > 5000 µg/mL; Activity (Cytochrome P450 3A4): Not Active; Activity (Cytochrome P450 2D6): Not Active; Activity (Cytochrome P450 2C9): Not Active; Activity (Rattus norvegicus [33]): 90%; concentration at 0.5 h [34]: 150 ng/mL; fraction unbound [30]: 0.15; Activity (Rattus norvegicus [35]): Active; concentration (Brain): 956 nM; concentration (Plasma): 257 nM; Activity (Rattus norvegicus [36]): Active; Activity (Rattus norvegicus [37]): Active |
